Literature values, collected in patent US12482537B2, “System of predicting sensitivity of Klebsiella against MeropeneM and method” (priority 2023, dated 2025).

Test system: carbapenem resistant Klebsiella pneumoniae
Details: isolates from 2014 to 2017 (252/403)

C[C@@H](O)[C@H]1C(=O)N2C(C(=O)O)=C(S[C@@H]3CN[C@H](C(=O)N(C)C)C3)[C@H](C)[C@H]12 [Meropenem]
resistance rate against meropenem: 62.5%
